# Data taken from patent US7019194B2, “SCCE modified transgenic mammals and their use as models of human disease” (priority 2001, dated 2006).
# Entries after “also recorded” stand apart in the source; their conditions may differ.
# Tested on: scce-transgenic mice
# Assay: Scratching behaviour (itch) in scce-transgenic mice for testing of antipruritic agents
# Assay type: in vivo
# Details: scce-transgenic mice 20-21 weeks; tube feeding, 30 μl of 1 mg/ml mixture (FIG. 8A), 90 μl 7 days later (FIG. 8B); versus sucrose control solution
# Experimental: Scratching behavior of scce-transgenic (#1010) mice. Twenty one mice, (11 transgenes, 5 females; 10 wild type litter mates, 2 females) were observed every fifth day for 45 days, starting when the mice were 5-6 weeks of age. At each observation point mice were transferred to individual cages, and episodes of scratching with hind or front paws were counted during three 5-min periods with 2.5 min lapsing from the transfer to the cage to the first counting, and between counting periods. The results for the three observation periods were pooled and the number of episodes of scratching per min calculated. […]
# Transgenic mice, 18-22 weeks of age, mean weight 24.2 g, were given subcutaneous injections of either 250 μg of the glucocorticoid triamcinolone acetonide in a total volume of 100 μl on day 0, and 100 μg triamcinolone acetonide in a total volume of 100 μl on days 7, 14 and 21, or 100 μl of physiological saline at the same time points. Episodes of scratching were counted in the morning and injections were given in the afternoon. […]
# Transgenic mice 20-21 weeks of age, mean weight […], were given either loratidine in a total volume of 100 μl, or 100 μl of a control solution by means of tube feeding. Episodes of scratching were counted immediately before feeding (0 hours), and then at time points as indicated. […]
structure (smiles),measurement,value
CCOC(=O)N1CCC(=C2c3ccc(Cl)cc3CCc3cccnc32)CC1 [loratidine],effect on itch (frequency of scratching),no significant difference in frequency of scratching; also recorded: no statistically significant antipruritic effect; also recorded: no statistically significant differences in frequency of scratching
